Results published in patent publication US6527759B1, “Ultrasound assembly for use with light activated drugs” (Ekos Corporation, priority 1995, dated 2003).

Experiments:
[1] = Drug solubility in oil: SnEt2 in MCT oil with excipient combinations (Example 5); type: physicochemical; conditions: emulsion with excipients vs MCT oil alone
Procedure: (§1) Several emulsions are prepared as described above. In 5 ml glass tubes, medium chain length oil known as MCT oil (Miglyol 801, Hüls America, Piscataway, N.J.) is combined with 10 mg/gm SnEt2 plus excipients as described above. Certain emulsions also included additional excipients in the following concentrations: ethanol at […]; egg phospholipids at 75 mg/gm oil; and sodium cholate at 10 mg/gm oil. After incubating for 30 minutes at 55° C., the tubes stand overnight at room temperature (19°-22° C.). The tubes arc centrifuged to remove bulk precipitates, and supernatants are filtered through 0.45 μm nylon membrane to remove any undissolved drug. Aliquots of filtrate are then diluted in chloroform:isopropyl alcohol (1:1) for spectrophotometric determination of drug concentration (absorbance at 662 nm). Reference standards are prepared with known concentrations of SnEt2 in the same solvent.
The concentration of SnEt2 in each of the emulsions is illustrated in Table 2. As illustrated, the concentration of SnEt2 in the emulsion can be more than ten times the concentration in MCT oil alone.

[2] = Relative efficiency of bile salts as co-solubilizers for SnEt2 in MCT oil, egg phospholipids and ethanol (Example 6); type: physicochemical; conditions: egg phospholipids, ethanol
Procedure: as §1
This example illustrates relative efficiencies of several bile salts. Mixtures of MCT oil, egg phospholipids, ethanol, and SnEt2 are incubated with different bile salts, all at 4.6 mM^1, under the same conditions described above. […] Cholic acid lacks solubilizing action in the oil.

SMILES: CCOC(=O)C1=Cc2c3nc(cc4nc(cc5[n-]c(cc6[n-]c2c(C)c6CC)c(C)c5CC)C(C)=C4CC)[C@@H](C)[C@]13CC.[Cl-].[Cl-].[Sn] (racemic) [SnEt2, tin ethyl etiopurpurin]
- concentration of SnEt2 in the emulsion relative to the concentration in MCT oil alone [1]: more than ten
- SnEt2 Concentration ([2]; bile compound: Cholic acid, 4.6 mM): 1.33 mg/gm oil
- SnEt2 Concentration ([2]; bile compound: Na Tauracholate, 4.6 mM): 1.13 mg/gm oil
- SnEt2 Concentration ([2]; bile compound: Na cholate, 4.6 mM): 3.70 mg/gm oil
- SnEt2 Concentration ([2]; bile compound: Na deoxycholate, 4.6 mM): 2.31 mg/gm oil
- SnEt2 Concentration ([2]; bile compound: Na glycocholate, 4.6 mM): 2.22 mg/gm oil
- SnEt2 Concentration ([2]; bile compound: None): 1.26 mg/gm oil
